Source: publication PMC12785325, “Edible Yellow Mealworm-Derived Antidiabetic Peptides: Dual Modulation of α-Glucosidase and Dipeptidyl-Peptidase IV Inhibition Revealed by Integrated Proteomics, Bioassays, and Molecular Docking Analysis” (Foods, 2025)
Where a SMILES comes first, the peptide text is derived from it.

These molecules were tested against T1, DPP-IV (Homo sapiens, UniProt P27487) (assay: DPP-IV inhibitor screening assay (commercial kit, Abcam)). Settings: IC50 from DPP-IV inhibition rates, '-' = no IC50 given (only three peptides showed inhibitory effects against DPP-IV).
T1 construct: purchased Abcam (Cambridge, UK)
T1 sequence (P27487 whole entry): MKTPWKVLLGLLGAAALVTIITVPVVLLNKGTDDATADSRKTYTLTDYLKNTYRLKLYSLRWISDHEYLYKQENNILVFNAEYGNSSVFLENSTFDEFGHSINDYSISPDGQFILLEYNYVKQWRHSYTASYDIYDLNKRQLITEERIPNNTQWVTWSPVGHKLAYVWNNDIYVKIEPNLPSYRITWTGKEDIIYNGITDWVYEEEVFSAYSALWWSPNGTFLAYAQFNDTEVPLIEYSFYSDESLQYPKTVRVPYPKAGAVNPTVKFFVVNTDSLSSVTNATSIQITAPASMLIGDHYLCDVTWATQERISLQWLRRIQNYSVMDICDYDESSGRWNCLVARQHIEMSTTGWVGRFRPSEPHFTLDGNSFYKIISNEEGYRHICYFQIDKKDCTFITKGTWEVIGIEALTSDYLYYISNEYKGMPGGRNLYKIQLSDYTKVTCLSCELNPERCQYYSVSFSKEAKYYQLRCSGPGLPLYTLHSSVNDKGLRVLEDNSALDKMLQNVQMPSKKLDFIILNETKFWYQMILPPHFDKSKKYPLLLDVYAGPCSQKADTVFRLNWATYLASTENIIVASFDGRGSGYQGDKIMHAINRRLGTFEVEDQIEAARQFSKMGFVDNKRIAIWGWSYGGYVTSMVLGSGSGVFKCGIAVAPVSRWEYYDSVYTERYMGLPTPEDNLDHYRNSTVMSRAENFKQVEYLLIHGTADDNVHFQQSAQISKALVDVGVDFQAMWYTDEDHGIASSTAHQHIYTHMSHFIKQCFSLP
Assay type: biochemical
Procedure: Subsequently, the screening assay was conducted using a commercial kit (Abcam, Cambridge, UK) following the protocols provided by the manufacturer. The half-maximal inhibitory concentration (IC50) was determined through analysis of DPP-IV inhibition rates, applying the formula outlined in Equation (2):(2) DPP-IV inhibition rate (%) = [(ABlank − ASample)/ABlank] × 100 where A represents the absorbance value.

Q: For `NCCCC[C@H](NC(=O)[C@H](Cc1ccccc1)NC(=O)[C@@H]1CCCN1C(=O)[C@@H]1CCCN1C(=O)CNC(=O)[C@H](Cc1ccc(O)cc1)NC(=O)[C@@H](N)CC(=O)O)C(=O)O` [DK-7] (H-DYGPPFK-OH), which IC50 is on record?
A: The IC50 was over 12.2 mM.

Q: Which IC50 does the source give for `CC(C)C[C@H](NC(=O)[C@H](CC(=O)O)NC(=O)[C@H](Cc1ccccc1)NC(=O)[C@@H]1CCCN1C(=O)[C@H](CC(N)=O)NC(=O)[C@@H](N)Cc1ccccc1)C(=O)N[C@H](C(=O)N[C@@H](CCCCN)C(=O)O)[C@@H](C)O` [FK-8] (H-FNPFDLTK-OH) here?
A: Its IC50 is over 10.2 mM.

Q: With `CC(C)C[C@H](NC(=O)[C@@H](N)CO)C(=O)N[C@@H](Cc1ccccc1)C(=O)N[C@@H](CC(C)C)C(=O)N1CCC[C@H]1C(=O)N[C@@H](CCCCN)C(=O)O` [SK-6] (H-SLFLPK-OH) as the molecule, how does the IC50 read?
A: The IC50 was over 14.2 mM.

What follows are molecules tested on HepG2 cells (assay: HepG2 cell viability (CCK-8)). Settings: at certain concentrations within 100-400 μg/mL, 24 h, p < 0.05.
Assay type: cell-based, human
Procedure: HepG2 human hepatocellular carcinoma cells utilized in this study were generously provided by Prof. Fuliang Hu from Zhejiang University’s College of Animal Science (China). Cellular maintenance involved cultivation in HyClone’s high-glucose DMEM medium supplemented with 10% heat-inactivated fetal bovine serum (Gibco, Waltham, MA, USA) and antibiotic agents (100 U/mL penicillin plus 100 μg/mL streptomycin). Cellular propagation was conducted under standard culture conditions (37 °C, 5% CO2 humidified atmosphere), following established protocols.
To validate whether the bioactive peptides exert toxic effects on cells, the impact of peptide concentrations on cell viability should also be assessed. […] After the treatment period, 10 μL of CCK-8 solution was added, and these 96-well plates were gently shaken and incubated again at 37 °C under 5% CO2 for another 1 h. In the end, the calculation methodology for evaluating the cell viability of bioactive peptides is described in Equation (2) in Section 2.6 to assess the effects of bioactive peptides on cell viability. All blank groups were established using DMEM high-glucose medium devoid of insulin.

Q: For `CC(C)C[C@H](NC(=O)[C@H](C)NC(=O)[C@H](CC(=O)O)NC(=O)[C@H](Cc1ccccc1)NC(=O)[C@@H]1CCCN1C(=O)[C@@H](N)CC(=O)O)C(=O)N1CCC[C@H]1C(=O)N[C@@H](CCCCN)C(=O)O` [DK-8] (H-DPFDALPK-OH), which “HepG2 cell viability versus blank group” value is on record?
A: Its value is “significantly higher than the blank group”.

Q: With `CSCC[C@H](NC(=O)CN)C(=O)N[C@@H](CC(=O)O)C(=O)N[C@@H](Cc1ccccc1)C(=O)N[C@@H](CCC(N)=O)C(=O)N1CCC[C@H]1C(=O)N[C@@H](CCCNC(=N)N)C(=O)O` [GR-7] (H-GMDFQPR-OH) as the molecule, how does the “HepG2 cell viability versus blank group” value read?
A: Its value is “significantly higher than the blank group”.

Q: With `CC(C)C[C@H](NC(=O)[C@@H](N)CO)C(=O)N[C@@H](Cc1ccccc1)C(=O)N[C@@H](CC(C)C)C(=O)N1CCC[C@H]1C(=O)N[C@@H](CCCCN)C(=O)O` [SK-6] (H-SLFLPK-OH) as the molecule, how does the “HepG2 cell viability versus blank group” value read?
A: The value was “significantly higher than the blank group”.
